The source of these data is US20240016814A1, “METHOD OF TREATING HYPERTENSION” (Cipla Limited, priority 2017, published 2024).

Molecules are shown by their SMILES. Where “and” joins values, the source holds several entries; their conditions need not be identical. Equal entries are not always repeated. Structures can show the parent of a compound that is named as a salt. Where two headings read alike, the source gives them in different places.

The conditions of series [1]: cited from earlier work.
In series [2] the test system is rats with monocrotaline induced pulmonary arterial hypertension. In words: Monocrotaline rat model for pulmonary arterial hypertension (Example 1, dosing Day 1 to 28). The class given is in vivo, Male Sprague-Dawley rats. On the procedure: The studies were conducted for hemodynamic evaluation of desipramine in anesthetized sprague dawley rats treated with monocrotaline (“MCT”) to induce pulmonary arterial hypertension. Sildenafil was used as an internal control to compare the effects of desipramine.
The effects of Desipramine were evaluated in rats with monocrotaline induced pulmonary arterial hypertension using sildenafil as standard care treatment. Male Sprague-Dawley rats were orally administered vehicle, Desipramine (20 mg/kg given once daily every day for 28 days starting on Day 1), or sildenafil (100 mg/kg, administered once daily every day for 28 days starting on Day 1) (n=12 in each group). Rats received a single injection of monocrotaline (50 mg/kg, s.c.) on Study Day 1. On the twenty-eighth day following monocrotaline dosing, the rats were anesthetized with ketamine/xylazine for terminal monitoring of pulmonary and systemic arterial pressures along with heart rate.
Test Item: Vehicle (0.5% Methylcellulose+0.2% Tween 80 in deionized water. Desipramine (20 mg/kg given once daily for 28 days; Sildenafil (100 mg/kg administered once daily)
(§1) Route of Administration: Oral
Study Design: The study was planned and conducted according to design depicted below in Table 1
Pulmonary arterial hypertension was induced by injecting Monocrotaline (3 mL/Kg MCT in 50% DMSO in water) subcutaneously at a dose of 50 mg/kg of body weight to all the randomized Male Sprague-Dawley rats of Groups II, III, IV and V (except negative control group). Negative control group (Group I. DMSO group) received a single dose of 3 mL/kg 50% DMSO in water for injection subcutaneously. The positive control group (Group III) received 5 ml of vehicle every morning. The rats of desipramine group (Group IV) were orally administered Desipramine (20 mg/kg given once daily for 28 days starting on Day 1) and rats of sildenafil group (Group V) were orally administered sildenafil (100 mg/kg given once daily for 28 days starting on Day 1) On the twenty-eighth day after monocrotaline dosing, the rats were anesthetized with ketamine/xylazine for terminal monitoring of pulmonary and systemic arterial pressures along with heart rate.

The test system is the same in series [3]. Nature of the series: Monocrotaline rat model for treatment of pulmonary arterial hypertension (Example 2, dosing Day 14 till Day 28). The class given is in vivo, Male Sprague-Dawley rats. Particulars: for % Inhibition of Fulton index: Hypertrophy (RV/LV + S) / inhibition at 30 mg/kg: positive control = 0.00; for inhibition at 30 mg/kg: Rattus norvegicus, po. As to the method:
The studies were conducted for hemodynamic evaluation of desipramnine in anesthetized Sprague Dawley rats treated with monocrotaline (“MCT”) to induce pulmonary arterial hypertension. Sildenafil was used as an internal control to compare the effects of desipramine. The effects of desipramine were evaluated in rats with monocrotaline induced pulmonary arterial hypertension using sildenafil as standard care treatment. Male Sprague-Dawley rats were orally administered vehicle, desipramine (30 mg/kg, given once daily every day starting on Day 14 till Day 28), or sildenafil (100 mg/kg, given once daily every day starting on Day 14 till Day 28) (n=12 in each group). Rats received a single injection of monocrotaline (50 mg/kg, s.c.) on Study Day 1. On the twenty-eighth day following monocrotaline dosing, the rats were anesthetized with ketamine/xylazine for terminal monitoring of pulmonary and systemic arterial pressures along with heart rate.
Test Item: Vehicle (0.5% Methylcellulose+0.2% Tween 80 in deionized water. Desipramine (30 mg/kg given once daily starting on Day 14 till Day 28; Sildenafil (100 mg/kg, administered once daily starting on Day 14 till Day 28)
as §1
Study Design: The study was planned and conducted according to design depicted below in Table 7
Pulmonary arterial hypertension was induced by injecting 50 mg/kg dose of monocrotaline (3 mL/Kg MCT in 50% DMSO in water) subcutaneously to all the randomized Male Sprague-Dawley rats of Groups VII, VII, IX and X (except negative control group). Negative control group (Group VI. DMSO group) received a single dose of 3 mL/kg 50% DMSO in water for injection subcutaneously. Male Sprague-Dawley rats in groups […], VII, VIII and IX and X were administered 50 mg/kg of body weight of monocrotaline in DMSO subcutaneously to induce PAH on day 1. The rats of vehicle positive control group (Group VIII) received 5 ml of vehicle every morning. The rats of desipramine group (Group IX) were orally administered desipramine (30 mg/kg given once daily starting on Day 14 till Day 28) and rats of sildenafil group (Group X) were orally administered dildenafil (100 mg/kg given once daily starting on Day 14 till Day 28). On the twenty-eighth day after monocrotaline dosing, the rats were anesthetized with ketamine/xylazine for terminal monitoring of pulmonary and systemic arterial pressures along with heart rate. It is understood that from day 1 till administration of test compounds i.e., until day 14, rates of all groups were suffering from PAH due to administration of MCT. Thus the study was conducted to evaluate the efficacy of desipramine treatment for PAH. Sildenafil was used as an internal control to compare the effects of desipramine.

[4] abbreviates: group mean, Desipramine 20 mg/Kg p.o. QD Day 1-28, Day 28.
Setting [5] is: individual animals, Desipramine 20 mg/Kg p.o. QD Day 1-28, Day 28.
Setting [6] is: group mean, Desipramine 30 mg/Kg p.o. QD Day 14 till Day 28, Day 28.
[7] abbreviates: individual animals, Desipramine 30 mg/Kg p.o. QD Day 14 till Day 28, Day 28.

On to `CNCCCN1c2ccccc2CCc2ccccc21` [Desipramine hydrochloride], for which the “time at which peak plasma concentrations are attained” value in series [1] (following oral administration) was 4 to 6 h. Moreover, in series [1] (in vivo), the “absorption from the gastrointestinal tract” value was “rapidly and almost completely absorbed”; the first-pass metabolism entry was “extensive”.

Regarding `CCCc1nn(C)c2c(=O)[nH]c(-c3cc(S(=O)(=O)N4CCN(C)CC4)ccc3OCC)nc12` [Sildenafil], the “RV/Body wt (Right Ventricle/Body Weight), Mean” value in series [2] (group mean, Sildenafil 100 mg/kg p.o. QD Day 1-28, Day 28) was found to be 0.0006. Also, in series [2] (individual animals, Sildenafil 100 mg/kg p.o. QD Day 1-28, Day 28), the “RV/Body wt (Right Ventricle/Body Weight)” value was 0.0009 and 0.0006 (4×) and 0.0007 (3×) and 0.0003. Besides, the “% Inhibition of Fulton index: Hypertrophy (RV/LV + S)” value in series [3] (Sildenafil 100 mg/Kg p.o. QD Day 14 till Day 28) is reported as 30.70%. In series [3] (group mean, Sildenafil 100 mg/Kg p.o. QD Day 14 till Day 28, Day 28), the “Fulton index: Hypertrophy (RV/LV + S), Mean” value (shortened to “Fulton index … Mean”) is on record as 0.384. Moreover, the “Fulton index: Hypertrophy (RV/LV + S)” value in series [3] (individual animals, Sildenafil 100 mg/Kg p.o. QD Day 14 till Day 28, Day 28) was 0.393 and 0.306 and 0.337 and 0.389 and 0.415 and 0.464.

Take `CNCCCN1c2ccccc2CCc2ccccc21` [Desipramine]: the “systolic and mean pulmonary arterial pressures compared to the vehicle group” value in series [2] (after 28 days, desipramine 20 mg/kg/day once daily) was “differences”. Also, the “activity in controlling or reducing PAH compared with Sildenafil activity” value in series [2] (desipramine 20 mg/kg vs sildenafil 100 mg/kg, Day 1-28) is on record as “comparable”. In series [2] (setting [4]), the “Fulton index … Mean” value turned out to be 0.321; the “RV/Body wt (Right Ventricle/Body Weight), Mean” value is reported as 0.0007; the “Right Ventricle (RV), Mean” value turned out to be 0.200 g; the “Right Ventricular Pressure (RVP), Mean” value turned out to be 16.241 mmHg. Moreover, the “Right Ventricular Systolic Pressure (RVSP), Mean” value in series [2] (group mean, Desipramine 20 mg/Kg p.o. QD Day 1-28, MCT 50 mg/kg s.c., Day 28) came out at 33.154 mmHg. For the same compound, in series [2] (setting [5]), the “Fulton index: Hypertrophy (RV/LV + S)” value is 0.292 and 0.474 and 0.274 and 0.244 and 0.286 and 0.278 and 0.426 and 0.352 and 0.263; the “RV/Body wt (Right Ventricle/Body Weight)” value was 0.0005 (4×) and 0.0012 and 0.0006 (2×) and 0.0008 (2×); the “Right Ventricle (RV)” value is 0.171 g and 0.272 g and 0.168 g and 0.163 g and 0.169 g (2×) and 0.289 g and 0.251 g and 0.150 g; the “Right Ventricular Pressure (RVP)” value is 22.694 mmHg and 19.903 mmHg and 14.460 mmHg and 12.513 mmHg and 13.047 mmHg and 12.287 mmHg and 13.930 mmHg and 16.428 mmHg and 20.906 mmHg. In addition, the “Right Ventricular Systolic Pressure (RVSP)” value in series [2] (individual animals, Desipramine 20 mg/Kg p.o. QD Day 1-28, MCT 50 mg/kg s.c., Day 28) was 44.096 mmHg and 40.737 mmHg and 27.834 mmHg and 26.777 mmHg and 25.403 mmHg and 26.483 mmHg and 31.091 mmHg and 37.179 mmHg and 38.785 mmHg. In addition, the “% Inhibition of Fulton index: Hypertrophy (RV/LV + S)” value in series [3] (Desipramine 30 mg/Kg p.o. QD Day 14 till Day 28) is 32.07%. For the same compound, in series [3] (Desipramine 30 mg/Kg p.o. QD Day 14 till Day 28, read-out: % Inhibition of Right Ventricular Pressure (RVP)), the inhibition at 30 mg/kg is 53.9%. Further, in series [3] (Desipramine 30 mg/Kg p.o. QD Day 14 till Day 28, read-out: % Inhibition of Right Ventricular Systolic Pressure (RVSP)), the inhibition at 30 mg/kg was found to be 51.6%. The “systolic and mean pulmonary arterial pressures compared to the vehicle group” value in series [3] (after 28 days, desipramine 30 mg/kg/day once daily, Day 14 till Day 28) is recorded as “differences”. In addition, the “activity in treatment of PAH compared with Sildenafil activity” value in series [3] (desipramine 30 mg/kg vs sildenafil 100 mg/kg, Day 14 till Day 28) is listed as “comparable”. In addition, in series [3] (setting [6]), the “Fulton index … Mean” value is recorded as 0.376; the “Right Ventricle weight, Mean” value is 0.250 gms; the “Right Ventricular Pressure (RVP), Mean” value was 15.796 mmHg; the “Right Ventricular Systolic Pressure (RVSP), Mean” value amounted to 33.248 mmHg. In series [3] (setting [6]), the “Right ventricle/Body weight, Mean” value amounted to 0.0007. In series [3] (setting [7]), the “Fulton index: Hypertrophy (RV/LV + S)” value is 0.404 and 0.426 and 0.430 and 0.333 and 0.288; the “Right Ventricle weight” value is 0.252 gms and 0.274 gms and 0.340 gms and 0.205 gms and 0.181 gms; the “Right Ventricular Pressure (RVP)” value was 14.133 mmHg and 19.618 mmHg and 19.346 mmHg and 15.432 mmHg and 10.448 mmHg; the “Right ventricle/Body weight” value is 0.0008 (2×) and 0.0010 and 0.0006 and 0.0005. In addition, the “Right Ventricular Systolic Pressure (RVSP)” value in series [3] (individual animals, Desipramine 30 mg/Kg p.o. QD Day 14 till Day 28, MCT 50 mg/kg s.c., Day 28) was 30.245 mmHg and 39.927 mmHg and 38.672 mmHg and 32.210 mmHg and 25.188 mmHg.

The term inhibition denotes the drop in the measured response relative to a control, in per cent.
